From PMC9645375, “Pattern enrichment analysis for phage selection of stapled peptide ligands” (Chemical Science, 2022)
Numbered stars: 1 amine (or outer) side, 2 acyl side, 3 side chain; on linkers, the order of the positions; unused ones are H or OH. Bridge positions count the residues as written; N and C are the ends. Peptide text beside a SMILES is read from it. X1 = O=C(C[*:1])NCCCCCNC(=O)C[*:2]

Columns and labels:
[1] = target: T1, HDM2 (human double minute 2) (Homo sapiens, UniProt Q00987); experiment: Fluorescence polarisation competition binding assay against FAM-ATSP-3848; conditions: for inhibition of FAM-ATSP-3848 binding to HDM2 (in words): fluorescence polarisation, 100 nM HDM2, 10 nM FAM-ATSP-3848
T1 construct: His-tag; made in house
T1 sequence (Q00987 whole entry): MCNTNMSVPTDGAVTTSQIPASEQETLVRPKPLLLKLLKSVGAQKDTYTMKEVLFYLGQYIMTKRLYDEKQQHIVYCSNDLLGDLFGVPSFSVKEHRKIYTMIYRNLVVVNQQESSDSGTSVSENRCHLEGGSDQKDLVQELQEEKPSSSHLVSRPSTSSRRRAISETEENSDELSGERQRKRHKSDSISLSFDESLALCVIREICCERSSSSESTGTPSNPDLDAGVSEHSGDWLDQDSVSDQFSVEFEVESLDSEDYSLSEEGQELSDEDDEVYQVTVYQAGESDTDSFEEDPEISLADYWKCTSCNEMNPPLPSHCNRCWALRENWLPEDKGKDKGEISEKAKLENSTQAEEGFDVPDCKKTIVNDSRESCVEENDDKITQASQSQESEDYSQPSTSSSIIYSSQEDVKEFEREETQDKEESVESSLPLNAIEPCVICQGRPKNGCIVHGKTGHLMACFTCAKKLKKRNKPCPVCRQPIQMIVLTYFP
Description: Fig. 4 Position–amino acid pattern enrichment analysis of the HDM2-R3 pool. (a) Pattern enrichment score calculation. For both sequence data (FASTQ), the abundance of each position–amino acid pattern was determined. Enrichment values were calculated as the ratio of abundance in the selected sample to that in the control sample. (b) Venn diagram showing pattern coverage (white, whole space of three-window patterns; blue, patterns found in Amp-R3 dataset; red, patterns found in HDM2-R3 dataset). (c) Scattering plot indicating the abundance of control (x-axis) and HDM2-R3 selected sample (y-axis). Red circles are patterns with log2(ratio) values greater than 8. (d) Position–amino acid patterns ranked in the top 20. (e) WebLogo depicting enriched sequences determined from enriched patterns with log2(ratio) values greater than 8. (f) Sequences and helical wheel diagrams of HDM2-p13 and HDM2-opt peptides. Highly enriched residues are coloured red. (g) Fluorescence polarisation assay for competitive inhibition. Peptides (50 nM to 50 μM) were mixed with 100 nM HDM2 and 10 nM FAM-ATSP-3848. […] Error bar represents SD (n = 3).
Competition binding assay
The peptides (50 nM–50 µM) was mixed with 100 nM of HDM2 and 10 nM of FAM-AT P S-3848 in HBS buffer (10 mM HEPES, 150 mM NaCl, pH 7.5). The fluorescence polarization was measured by ARVO MX plate […]
values of peptide inhibitors were calculated by nonlinear regression analysis using Prism (GraphPad Software).
Pull-down competition binding assay
Recombinant SARS-CoV-2 Spike RBD His Biotin Protein (R&D Systems, BT10500) at 4 µg/mL concentration in HBS buffer was incubated with 3 mg/mL of DynaBeads M-280 (ThermoFisher) for 2 hours at 4 °C. […]
After one hour incubation at room temperature, the beads were rinsed three times with HBS-T ( 2 0 0 µL/well). […] The chemiluminescent bands were detected using LuminoGraphI (ATTO) with ImageSaver6 software. From the band intensities, IC50 values of peptide inhibitors were calculated by nonlinear regression analysis using Prism (GraphPad Software).

[2] = CD measurement of helical content; type: physicochemical
[3] = target: interaction between SARS-CoV-2 spike RBD and ACE2 (Severe acute respiratory syndrome coronavirus 2, UniProt P0DTC2); experiment: biochemical; type: binding; conditions: n = 3

| SMILES | inhibition of FAM-ATSP-3848 binding to HDM2 (in words) [1] | helical content ([2]; CD, 25% TFE, 30 µM peptide, HBS buffer (10 mM HEPES, 150 mM NaCl, pH 7.5), calculated by BeStSel web server) | IC50 ([1]; competitive inhibition FP, peptides 50 nM to 50 μM, 100 nM HDM2, 10 nM FAM-ATSP-3848, HBS buffer (10 mM HEPES, 150 mM NaCl, pH 7.5), SD, n = 3) | IC50 [3] | conformational preference (in words) [2] | helical content ([2]; pH 7.5) |
| --- | --- | --- | --- | --- | --- | --- |
| CC(C)C[C@H](NC(=O)[C@@H]1CSCC(=O)NCCCCCNC(=O)CSC[C@H](NC(=O)[C@@H]2CCCN2)C(=O)N[C@@H](Cc2ccccc2)C(=O)N[C@@H](Cc2ccc(O)cc2)C(=O)N[C@@H](CC(=O)O)C(=O)N[C@@H](Cc2ccc(O)cc2)C(=O)N[C@@H](Cc2c[nH]c3ccccc23)C(=O)N[C@@H](CCC(N)=O)C(=O)N1)C(N)=O [HDM2-opt] (H-PCFYDYWQCL-NH2; linker 2-9 via X1) | exhibited effective inhibition |  |  |  |  |  |
| CC(C)C[C@H](NC(=O)[C@@H]1CSCC(=O)NCCCCCNC(=O)CSC[C@H](NC(=O)[C@H](C)N)C(=O)N[C@@H](Cc2ccccc2)C(=O)N[C@@H](CC(=O)O)C(=O)N[C@@H](CCC(=O)O)C(=O)N[C@@H](Cc2ccc(O)cc2)C(=O)N[C@@H](Cc2c[nH]c3ccccc23)C(=O)N[C@@H](CCC(N)=O)C(=O)N1)C(N)=O [HDM2-p13] (H-ACFDEYWQCL-NH2; linker 2-9 via X1) | inhibited the high-affinity binding | 43% | 4.8 ± 0.6 µM |  |  |  |
| CC(C)C[C@@H]1NC(=O)[C@@H](NC(=O)[C@@H](N)[C@@H](C)O)CSCC(=O)NCCCCCNC(=O)CSC[C@@H](C(=O)N[C@@H](Cc2ccccc2)C(N)=O)NC(=O)[C@H](CCC(=O)O)NC(=O)[C@H](Cc2ccccc2)NC(=O)[C@H](Cc2c[nH]c3ccccc23)NC(=O)[C@H](CO)NC(=O)[C@H](CO)NC1=O [CoV-2-p2] (H-TCLSSWFECF-NH2; linker 2-9 via X1) |  |  |  | 12.9 ± 4.9 µM | prefer a helical conformation | 45% |
| CC(C)C[C@@H]1NC(=O)[C@H](Cc2ccc(O)cc2)NC(=O)[C@H](CC(=O)O)NC(=O)[C@H](Cc2ccccc2)NC(=O)CNC(=O)[C@H](Cc2c[nH]c3ccccc23)NC(=O)[C@@H](NC(=O)[C@@H](N)[C@@H](C)O)CSCC(=O)NCCCCCNC(=O)CSC[C@@H](C(=O)N[C@@H](Cc2c[nH]c3ccccc23)C(N)=O)NC1=O [CoV-2-p5] (H-TCWGFDYLCW-NH2; linker 2-9 via X1) |  |  |  | 3.8 ± 3.3 µM |  | 12% |
